Laboratory results taken from patent US8921059B2, “Method and kit for detection of guaiacol-producing bacterium” (Calpis Co., Ltd., priority 2009, dated 2014).
Entries after “also recorded” stand apart in the source; their conditions may differ.

Tests used:
A. acidiphilus JCM21417 = experiment: Colony formation of thermotolerant acidophilic bacteria on YSG agar medium containing the substrate (Example 1); format: cell-based, Alicyclobacillus acidiphilus; parameters: key to detected level of colonies: ++: the detected level was at or above the level of the medium without a substrate (i.e. YSG medium); +: the detected level was lower than the level of the medium without a substrate; −: undetectable; details: for detected level of colonies: cultivation at 45° C. for 3 days
Description: (§1) A YSG agar medium containing vanillin, vanillic acid or ferulic acid was used to study the colony formation of thermotolerant acidophilic bacteria (TAB). Four bacterial strains used were A. acidoterrestris ATCC49025, A. acidiphilus JCM21417, A. acidocaldarius ATCC27009 and A. pomorum JCM21459. Among these, A. acidoterrestris ATCC49025 and A. acidiphilus JCM21417 have been reported as the bacterial strains producing guaiacol. […] After cooling to about 50° C., pH was adjusted to 3.7 with 10% sulfuric acid and a plate medium was prepared. The suspensions of the respective bacterial strains were subjected to a heat-shock treatment at 70° C. for 20 min. The bacterial suspensions were serially diluted with phosphate buffered saline up to 10^3 CFU/mL and 100 μL from the dilutions was smeared on the plates for culture. Cultivation was carried out at 45° C. for 3 days before the colonies formed were visually inspected. Similar experiments were carried out with replacing vanillic acid with vanillin or ferulic acid. When the medium was not easily solidified, the amount of agar was appropriately adjusted.

[1] = tested on: A. acidoterrestris ATCC49025; experiment: as above; format: cell-based, Alicyclobacillus acidoterrestris; parameters: key to detected level of colonies: ++: the detected level was at or above the level of the medium without a substrate (i.e. YSG medium); +: the detected level was lower than the level of the medium without a substrate; −: undetectable; details: for detected level of colonies: cultivation at 45° C. for 3 days
Source text: A YSG agar medium containing vanillin, vanillic acid or ferulic acid was used to study the colony formation of thermotolerant acidophilic bacteria (TAB). Four bacterial strains used were A. acidoterrestris ATCC49025, A. acidiphilus JCM21417, A. acidocaldarius ATCC27009 and A. pomorum JCM21459. Among these, A. acidoterrestris ATCC49025 and A. acidiphilus JCM21417 have been reported as the bacterial strains producing guaiacol. A YSG medium (Merck K.K., YGS Agar; 20.0 g) and vanillic acid (Wako Pure Chemical Industries, Ltd.; 0 to 250 mg) were dissolved in 1000 g of water with heating and subjected to autoclave sterilization (121° C. and 15 min.). After cooling to about 50° C., pH was adjusted to 3.7 with 10% sulfuric acid and a plate medium was prepared. The suspensions of the respective bacterial strains were subjected to a heat-shock treatment at 70° C. for 20 min. The bacterial suspensions were serially diluted with phosphate buffered saline up to 10^3 CFU/mL and 100 μL from the dilutions was smeared on the plates for culture. Cultivation was carried out at 45° C. for 3 days before the colonies formed were visually inspected. Similar experiments were carried out with replacing vanillic acid with vanillin or ferulic acid. When the medium was not easily solidified, the amount of agar was appropriately adjusted.

[2] = tested on: A. acidocaldarius ATCC27009; experiment: as above; format: cell-based, Alicyclobacillus acidocaldarius; parameters: key to detected level of colonies: ++: the detected level was at or above the level of the medium without a substrate (i.e. YSG medium); +: the detected level was lower than the level of the medium without a substrate; −: undetectable; details: for detected level of colonies: cultivation at 45° C. for 3 days; for colonies detected: 45° C. for 3 days
Description: as §1

[3] = tested on: A. acidoterrestris ATCC49025; experiment: Effects of culture temperature on the detection level of colonies (Example 2); format: cell-based, Alicyclobacillus acidoterrestris; details: for number of colonies, relative value (YSG medium without any substrate at 45° C. for 3 days = 100): 75 ppm in YSG medium
Description: Effects of culture temperature on the detection level of colonies of A. acidoterrestris ATCC49025 were studied using YSG agar medium containing vanillin, vanillic acid or ferulic acid. […] The suspensions containing the same number of bacterial cells of A. acidoterrestris ATCC49025 were smeared on the plates and cultured at 45° C. or 30° C. A YSG medium without any substrate was used as a control. The values are expressed as relative values to the number of colonies obtained after cultivation at 45° C. for 3 days in a YSG medium without any substrate being regarded as 100.

A. pomorum JCM21459 = experiment: Colony formation of thermotolerant acidophilic bacteria on YSG agar medium containing the substrate (Example 1); format: cell-based, Alicyclobacillus pomorum; parameters: key to detected level of colonies: ++: the detected level was at or above the level of the medium without a substrate (i.e. YSG medium); +: the detected level was lower than the level of the medium without a substrate; −: undetectable; details: for detected level of colonies: cultivation at 45° C. for 3 days; for colonies detected: 45° C. for 3 days
Description: as §1

[4] = used instead of vanillic acid, concentration not given

SMILES: COc1cc(/C=C/C(=O)O)ccc1O [ferulic acid]
- detected level of colonies (A. acidiphilus JCM21417; 25 ppm in YSG agar): ++
- detected level of colonies (A. acidiphilus JCM21417; 50 ppm in YSG agar): −
- detected level of colonies (A. acidiphilus JCM21417; 75 ppm in YSG agar): −
- detected level of colonies ([1]; 25 ppm in YSG agar): ++
- detected level of colonies ([1]; 50 ppm in YSG agar): ++
- detected level of colonies ([1]; 75 ppm in YSG agar): −
- detected level of colonies ([2]; 25 ppm in YSG agar): −
- detected level of colonies ([2]; 50 ppm in YSG agar): −
- detected level of colonies ([2]; 75 ppm in YSG agar): −
- detection sensitivity compared to the medium without any substrate ([3]; 25 ppm): improved
- number of colonies at 30° C. for 5 days compared with 45° C. for 3 days [3, 4]: The same tendency was observed
- detected level of colonies (A. pomorum JCM21459; 25 ppm in YSG agar): −
- detected level of colonies (A. pomorum JCM21459; 50 ppm in YSG agar): −
- detected level of colonies (A. pomorum JCM21459; 75 ppm in YSG agar): −

SMILES: COc1cc(C(=O)O)ccc1O [vanillic acid]
- detected level of colonies (A. acidiphilus JCM21417; 10 ppm in YSG agar): ++
- detected level of colonies (A. acidiphilus JCM21417; 50 ppm in YSG agar): ++
- detected level of colonies (A. acidiphilus JCM21417; 75 ppm in YSG agar): ++
- colonies detected compared with medium without vanillic acid (A. acidiphilus JCM21417; 75 ppm, 45° C. for 3 days): the same level or more colonies were detected as in the medium without vanillic acid
- detected level of colonies (A. acidiphilus JCM21417; 100 ppm in YSG agar): −
- colonies detected (A. acidiphilus JCM21417; 100 ppm, 45° C. for 3 days): no colony was detected
- detected level of colonies (A. acidiphilus JCM21417; 150 ppm in YSG agar): −
- detected level of colonies (A. acidiphilus JCM21417; 200 ppm in YSG agar): −
- detected level of colonies (A. acidiphilus JCM21417; 225 ppm in YSG agar): −
- detected level of colonies (A. acidiphilus JCM21417; 250 ppm in YSG agar): −
- detected level of colonies ([1]; 10 ppm in YSG agar): ++
- detected level of colonies ([1]; 50 ppm in YSG agar): ++
- detected level of colonies ([1]; 75 ppm in YSG agar): ++
- colonies detected compared with medium without vanillic acid ([1]; 75 ppm, 45° C. for 3 days): the same level or more colonies were detected as in the medium without vanillic acid
- detected level of colonies ([1]; 100 ppm in YSG agar): ++
- colonies detected compared with medium without vanillic acid ([1]; 100 ppm, 45° C. for 3 days): the same level or more colonies were detected as in the medium without vanillic acid
- detected level of colonies ([1]; 150 ppm in YSG agar): ++
- colonies detected compared with medium without vanillic acid ([1]; 150 ppm, 45° C. for 3 days): detected at the same level as in the medium without vanillic acid
- detected level of colonies ([1]; 200 ppm in YSG agar): ++
- colonies detected compared with medium without vanillic acid ([1]; 200 ppm, 45° C. for 3 days): detected at the same level as in the medium without vanillic acid
- detected level of colonies ([1]; 225 ppm in YSG agar): +
- detection sensitivity of AAT ([1]; 225 ppm, 45° C. for 3 days): lower
- detected level of colonies ([1]; 250 ppm in YSG agar): −
- colonies detected ([1]; 250 ppm or more, 45° C. for 3 days): no colonies were detected
- detected level of colonies ([2]; 10 ppm in YSG agar): ++
- detected level of colonies ([2]; 50 ppm in YSG agar): −
- detected level of colonies ([2]; 75 ppm in YSG agar): −
- colonies detected ([2]; 75 ppm): no colony was detected
- detected level of colonies ([2]; 100 ppm in YSG agar): −
- colonies detected ([2]; 100 ppm): no colony was detected
- detected level of colonies ([2]; 150 ppm in YSG agar): −
- detected level of colonies ([2]; 200 ppm in YSG agar): −
- detected level of colonies ([2]; 225 ppm in YSG agar): −
- detected level of colonies ([2]; 250 ppm in YSG agar): −
- detection sensitivity compared to the medium without any substrate ([3]; 50 ppm): improved
- number of colonies, relative value (YSG medium without any substrate at 45° C. for 3 days = 100) ([3]; 30° C., 5 days): 186
- number of colonies, relative value (YSG medium without any substrate at 45° C. for 3 days = 100) ([3]; 45° C., 3 days): 183
- number of colonies at 30° C. for 5 days compared with 45° C. for 3 days ([3]; 75 ppm in solid medium): the same number of colonies is obtained; also recorded: almost the same number of colonies was detected
- colonies detected compared to the medium without any substrate ([3]; 75 ppm, 45° C.): more colonies were detected
- detected level of colonies (A. pomorum JCM21459; 10 ppm in YSG agar): ++
- detected level of colonies (A. pomorum JCM21459; 50 ppm in YSG agar): −
- detected level of colonies (A. pomorum JCM21459; 75 ppm in YSG agar): −
- colonies detected (A. pomorum JCM21459; 75 ppm): no colony was detected
- detected level of colonies (A. pomorum JCM21459; 100 ppm in YSG agar): −
- colonies detected (A. pomorum JCM21459; 100 ppm): no colony was detected
- detected level of colonies (A. pomorum JCM21459; 150 ppm in YSG agar): −
- detected level of colonies (A. pomorum JCM21459; 200 ppm in YSG agar): −
- detected level of colonies (A. pomorum JCM21459; 225 ppm in YSG agar): −
- detected level of colonies (A. pomorum JCM21459; 250 ppm in YSG agar): −

SMILES: COc1cc(C=O)ccc1O [vanillin]
- detected level of colonies (A. acidiphilus JCM21417; 500 ppm in YSG agar): +
- detected level of colonies (A. acidiphilus JCM21417; 750 ppm in YSG agar): +
- detected level of colonies (A. acidiphilus JCM21417; 900 ppm in YSG agar): +
- detected level of colonies (A. acidiphilus JCM21417; 950 ppm in YSG agar): −
- detected level of colonies (A. acidiphilus JCM21417; 1000 ppm in YSG agar): −
- detected level of colonies ([1]; 500 ppm in YSG agar): ++
- detected level of colonies ([1]; 750 ppm in YSG agar): ++
- detected level of colonies ([1]; 900 ppm in YSG agar): ++
- detected level of colonies ([1]; 950 ppm in YSG agar): ++
- detected level of colonies ([1]; 1000 ppm in YSG agar): +
- detected level of colonies ([2]; 500 ppm in YSG agar): −
- detected level of colonies ([2]; 750 ppm in YSG agar): −
- detected level of colonies ([2]; 900 ppm in YSG agar): −
- detected level of colonies ([2]; 950 ppm in YSG agar): −
- detected level of colonies ([2]; 1000 ppm in YSG agar): −
- detection sensitivity compared to the medium without any substrate ([3]; 750 ppm): improved
- number of colonies at 30° C. for 5 days compared with 45° C. for 3 days [3, 4]: The same tendency was observed
- detected level of colonies (A. pomorum JCM21459; 500 ppm in YSG agar): −
- detected level of colonies (A. pomorum JCM21459; 750 ppm in YSG agar): −
- detected level of colonies (A. pomorum JCM21459; 900 ppm in YSG agar): −
- detected level of colonies (A. pomorum JCM21459; 950 ppm in YSG agar): −
- detected level of colonies (A. pomorum JCM21459; 1000 ppm in YSG agar): −
